Laboratory results as given in article PMC4689457, “Immucillins ImmA and ImmH Are Effective and Non-toxic in the Treatment of Experimental Visceral Leishmaniasis” (PLoS Neglected Tropical Diseases, 2015).
Where two headings read alike, the source gives them in different places.

Columns and labels:
IgG2a response, IL-10 = conditions: cited from earlier work; for IL-10 reduction: 1 day after complete treatment
[1] = system: L. (L.) infantum chagasi promastigotes; parameters: method as in PMID 25909893; conditions: cited from earlier work
[2] = system: L. (L.) amazonensis promastigotes; parameters: method as in PMID 25909893; conditions: cited from earlier work
L. (L.) infantum chagasi [3] = test: Liver parasite load (LDU) in infected BALB/c mice after chemotherapy; assay type: in vivo; conditions: 2.5 mg/kg/day ip 5 days
Experimental: (§1) Female BALB/c mice, 8 week old, were infected through the caudal vein with 10^7 amastigotes of L. (L.) infantum (strain IOC-L 3324) isolated from infected hamsters spleens. After 15 days of infection, mice (n = 5 per treatment) were injected by the intraperitoneal route (ip) with daily doses for 5 days of 2.5 mg/Kg of IA, IH, SMIH [30, 31] or the control drug Glucantime (Sanofi Aventis, batch 0929280802) (Fig 1). Immucillins were synthesized at the Ferrier Research Institute, Victoria University of Wellington, New Zealand. Uninfected and infected mice treated only with saline were included as controls for the treatment cohorts. On days 1, 15, and 30 after complete treatment, the animals were euthanized with CO2. Blood samples were collected for sera analysis and weight of spleens, livers and total body were determined. Spleens were also used for determination of cytokine expression. The parasite load was evaluated in Giemsa-stained liver smears and expressed in LDU values (Leishman Donovan units of Stauber = number of amastigotes per 1000 liver cell nuclei/mg of liver weight). The levels of urea, creatinine, glutamate pyruvate transaminase (GPT) and glutamate oxaloacetate transaminase ([…]) were assessed in plasma by standard clinical laboratory procedures using a Wiener lab Metrolab 2300 (Laborlife Análises Clínicas laboratory, Rio de Janeiro).

[4] = system: L. (L.) infantum chagasi infection; test: Survival, body and organ weights of infected treated BALB/c mice; assay type: in vivo; conditions: end of the experiment
Experimental: as §1

[5] = system: anti-NH36 IgG, IgG1 and IgG2a antibodies; test: Anti-NH36 antibody ELISA in sera of infected treated mice; assay type: in vivo, BALB/c mice
Experimental: The NH36 gene of Leishmania (L.) donovani (EMBL, Genbank and DDJB data bases, access number AY007193) with a His6tag at the C-terminal was cloned in E. coli Bl21DE3. Expression of the recombinant NH36 was obtained by induction with 0.5mM IPTG and overnight incubation at 20°C. Cultures were harvested by centrifugation and the pellets submitted to sonication during 10 minutes with cycles of 30 sec. and intervals of 55 sec. Sonicates were centrifuged and their supernatants separated for purification by column chromatography using Ni-NTA Superflow resin (Qiagen, USA). The column was eluted with a 50mM potassium phosphate, 300 mM NaCl buffer, pH: 8.0, using a 50 to 300mM imidazole gradient. The fraction containing NH36 recombinant antigen was recovered, dyalized and preserved at -80°C. Sera were collected from mice by intracardiac puncture on day 1, 15 and 30 following complete chemotherapy and assayed for the presence of anti-NH36 IgG, IgG1 and IgG2a antibodies. For that purpose the recombinant NH36 antigen (40 μg/mL) was solubilized in 0.1M sodium carbonate buffer (8.4 g of NaHCO3, 3.56 g of Na2CO3 per L; pH 9.6), and used to coat flat-bottom 96-well plates. Antibodies were detected by goat anti-mice IgG (Sigma), anti-IgG1 and anti-IgG2a peroxidase-conjugates (Southern Biotechnology Associates, Birmingham, AL, EEUU) in a 1:1000 dilution. The absorbance values at 492 ηm were compared using a 1:100 dilution of the serum samples. Results are expressed as mean values of triplicates. We used the mean average + 2 SD of serum from normal uninfected controls in order to calculate the cut-off value according to the Youden test.

splenocytes = test: Cytokine secretion by splenocytes of uninfected treated mice incubated in vitro with the respective drug; assay type: cell-based, BALB/c mice; conditions: splenocytes + 10 μg/ml drug
Experimental: (§2) Female BALB/c mice, 8 weeks old, were injected intraperitoneally with daily doses 2.5 mg/Kg of IA, IH, SMIH or Glucantime during five days and euthanized on day 1, 15 and 30 after complete treatment. For evaluation of the T cell response, spleens were removed and splenocytes were incubated for 24 h in vitro with the lysate of 10^6 stationary phase promastigotes of L. (L.) infantum chagasi (MHOM/BR/1974/PP75), with 25 μg/mL NH36, at 37°C and 5% CO2, during 72 h for the assay of the cytokine expression in the supernatants. Additionally, splenocytes from uninfected BALB/c mice either untreated or previously treated with IA, IH, SMIH or Glucantime were incubated in vitro with 10 μg/mL of each respective drug. For flow cytometry analysis (FACS analysis), splenocytes were incubated for 24 h with the antigens or drugs, labeled with anti-CD4FITC (clone GK1.5), anti-CD8FITC (clone 53–6.7) monoclonal antibodies (R&D systems, Inc) or with rat anti-mouse CD19-PerCP-Cy5.5 and 100,000 lymphocyte counts were acquired using a BD FACScalibur apparatus. Data was analyzed using the Flow-Jo program. The secretion of cytokines was evaluated in the supernatants of splenocytes by an ELISA assay.

[6] = system: CD4+, CD8+ and CD19+ lymphocytes; test: CD4+, CD8+ and CD19+ lymphocyte frequencies by flow cytometry in splenocytes of uninfected treated mice; assay type: cell-based, BALB/c mice; conditions: for CD8+ T cell frequencies: day 1 after treatment
Experimental: as §2

L. (L.) infantum chagasi [7] = test: Liver parasite load in infected CB hamsters after chemotherapy; assay type: in vivo, CB golden hamster; conditions: 2.5 mg/kg/day ip 5 days, 10 days after complete treatment; for liver parasite load: untreated 16,334 LDU
Experimental: (§3) The efficacy of immucillins was also assayed in the CB golden hamster susceptible model. Females, 8 weeks old, were infected through the intracardiac route with 2 x 10^7 amastigotes of L. (L.) infantum chagasi (strain IOC-L 3324) isolated from infected hamsters spleens. Thirty days after infection, the animals were treated with 2.5 mg/kg daily doses of Glucantime, IA, IH or SMIH, through the ip route, for five days. Ten days after complete treatment the animals were euthanized, their parasite load was determined in livers and the renal function evaluated in sera samples as described above.

[8] = Body weight and renal/hepatic markers in sera of infected treated hamsters; assay type: in vivo, CB golden hamster
Experimental: as §3

[9] = target: L. (L.) donovani recombinant NH36; parameters: method as in PMID 25909893; conditions: ref 29; read-out: Ki, inhibition of NH36 enzymatic activity; cited from earlier work
[10] = system: L. (L.) infantum chagasi amastigotes; parameters: method as in PMID 25909893; conditions: 10 μM; cited from earlier work
macrophage = system: macrophage; parameters: method as in PMID 25909893; conditions: 10 μM; cited from earlier work
human lymphocytes = conditions: cited from earlier work
[11] = cited from earlier work
visceral leishmaniasis = conditions: oral therapy, cited from earlier work
amastigotes = conditions: cited from earlier work
blood PNP = system: blood PNP; parameters: method as in PMID 19170524; conditions: mice; cited from earlier work
[12] = Renal and hepatic function markers in plasma of mice; assay type: in vivo, BALB/c mice
Experimental: as §1

[13] = day 1 after complete treatment, vs untreated infected controls
[14] = day 30 after complete treatment

## 1,3,4-tiadiazolium-2 aminide
IgG2a response, IL-10
  IL-10 reduction: 75%

## Nc1nc2c(CN3C[C@H](CO)[C@@H](O)C3)c[nH]c2c(=O)[nH]1 [DIG]
[1]
  concentrations inhibiting growth of promastigotes in vitro: nanomolar to micromolar
[2]
  concentrations inhibiting growth of promastigotes in vitro: nanomolar to micromolar

## O=c1[nH]cnc2c(CN3C[C@H](CO)[C@@H](O)C3)c[nH]c12 [DIH]
[1]
  concentrations inhibiting growth of promastigotes in vitro: nanomolar to micromolar
[2]
  concentrations inhibiting growth of promastigotes in vitro: nanomolar to micromolar

## Nc1ncnc2c([C@@H]3N[C@H](CO)[C@@H](O)[C@H]3O)c[nH]c12 [IA]
L. (L.) infantum chagasi [3]; [13]
  reduction of liver parasite load (LDU): 45%
L. (L.) infantum chagasi [3]; [14]
  reduction of liver parasite load (LDU): 89%
[4]
  survival: 100%
[5]; day 1
  anti-NH36 IgG1 in infected untreated controls higher than in treated mice: 69%
[5]; day 15
  anti-NH36 IgG1 in infected untreated controls higher than in treated mice: 64%
[5]; day 30
  anti-NH36 IgG1 in infected untreated controls higher than in treated mice: 57%
splenocytes
  IL-10 levels: 113 pg/mL
[6]
  CD19 B cell frequencies enhanced by previous treatment: ~ 30%
  CD8+ T cell frequencies: increased
[6]; day 1
  CD4+ T cell frequency, higher proportion than previously untreated controls: 57%
[6]; day 15
  CD4+ T cell frequency, higher proportion than previously untreated controls: 21%
[6]; day 30
  CD4+ T cell frequency, higher proportion than previously untreated controls: 29%
L. (L.) infantum chagasi [7]
  liver parasite load reduction: 86%
  liver parasite load: 2,038 LDU
[8]; infected hamsters
  body weight: increase in body weight
  decrease of creatinine: 66%
[9]
  Ki: 80 nM
[1]
  concentrations inhibiting growth of promastigotes in vitro: nanomolar to micromolar
[2]
  concentrations inhibiting growth of promastigotes in vitro: nanomolar to micromolar
[10]
  inhibition of intracellular replication of amastigotes: 95%
macrophage
  damage to macrophage viability: no apparent damage
Human lymphocytes
  mutagenicity or chromosomal aberrations: did not induced mutagenicity or chromosomal aberrations
[11]; mouse, rat, guinea pig and cynomolgus macaque
  metabolic stability: metabolically stable
[11]; ref 37
  clearance from plasma: rapid clearance

## O=c1[nH]cnc2c([C@@H]3N[C@H](CO)[C@@H](O)[C@H]3O)c[nH]c12 [IH]
L. (L.) infantum chagasi [3]; [14]
  reduction of liver parasite load (LDU): 85%
[4]
  survival: 100%
[6]
  CD19 B cell frequencies enhanced by previous treatment: sustained
L. (L.) infantum chagasi [7]
  liver parasite load reduction: 70%
  liver parasite load: 4,905 LDU
[8]; hamster, in vivo
  decrease of creatinine: 63%
  reduction of GOT levels: ~ 30%
  reduction of blood urea levels: ~ 50%
[8]; infected hamsters
  body weight: increase in body weight
[9]
  Ki: 19 nM
[1]
  concentrations inhibiting growth of promastigotes in vitro: nanomolar to micromolar
[2]
  concentrations inhibiting growth of promastigotes in vitro: nanomolar to micromolar
[10]
  inhibition of intracellular replication of amastigotes: 95%
macrophage
  damage to macrophage viability: no apparent damage

## CCCCCCCCCCCCCCCCOP(=O)([O-])OCC[N+](C)(C)C [Miltefosine]
Visceral leishmaniasis; Brazil
  cure rates: 50%
Visceral leishmaniasis; India
  success rates: 94%
amastigotes; ref 46
  reduction in parasite burden: 50%
IgG2a response, IL-10; ref 46
  enhancement of the IgG2a response: 75%

## Nc1nc(O)c2[nH]cc(CNC(CO)CO)c2n1 [SMIG]
[1]
  concentrations inhibiting growth of promastigotes in vitro: nanomolar to micromolar
[2]
  concentrations inhibiting growth of promastigotes in vitro: nanomolar to micromolar

## O=c1[nH]cnc2c(CNC(CO)CO)c[nH]c12 [SMIH]
L. (L.) infantum chagasi [3]; [14]
  reduction of liver parasite load (LDU): 85%
[4]
  survival: 100%
[6]
  CD4+ T cell frequencies (in words): lower CD4+ T cell frequencies
  CD19 B cell frequencies enhanced by previous treatment: ~ 30%
  CD8+ T cell frequencies: diminished
L. (L.) infantum chagasi [7]
  liver parasite load reduction: no cure
[8]; infected hamsters
  reduction of blood urea levels: ~ 50%
[1]
  concentrations inhibiting growth of promastigotes in vitro: nanomolar to micromolar
[2]
  concentrations inhibiting growth of promastigotes in vitro: nanomolar to micromolar
[10]
  inhibition of intracellular replication of amastigotes: 95%
macrophage
  damage to macrophage viability: no apparent damage
Blood PNP
  oral availability: orally available

## N.N.[Cl][Pt][Cl] [cisplatin]
amastigotes; ref 30
  reduction in parasite burden: 75%
amastigotes; ref 31
  reduction in parasite burden: 80%
amastigotes; ref 32
  reduction in parasite burden: 50%
IgG2a response, IL-10
  IL-10 reduction: 50%
IgG2a response, IL-10; ref 30, 31
  enhancement of the IgG2a response: 50–55%

## Glucantime [reference compound]
L. (L.) infantum chagasi [3]; [13]
  reduction of liver parasite load (LDU): 46%
L. (L.) infantum chagasi [3]; [14]
  reduction of liver parasite load (LDU): 88%
[4]
  survival: 100%
[5]; day 1
  anti-NH36 IgG2a increase vs untreated infected controls: 67%
splenocytes
  IL-10 levels: 509 pg/mL
[6]
  CD4+ T cell frequencies (in words): high CD4+ T cell increase (p<0.05) only on day 1
  CD19 B cell frequencies enhanced by previous treatment: ~ 30%
  CD8+ T cell frequencies: increased
[12]
  renal (urea and creatinine) and hepatic (GOT and GTP) toxicity: Pronounced toxicity
[12]; 2.5 mg/kg/day ip 5 days
  increase in GOT serum level: 6 fold
  increase in GPT serum level: 9 fold
  increase in creatinine serum level: 9 fold
  increase in urea serum level: 4 fold
[8]; infected hamsters
  body weight: increase in body weight
  decrease of creatinine: 41%
  reduction of blood urea levels: ~ 50%
